Measured values reported in PubChem BioAssay AID2060614 (Molecular Pharmacology Branch, DTP, NCI, 2025).
pIC50: −log10 of the molar value. Several values for one entry are separate records, joined by “and”; a condition that tells them apart may be missing. Equal entries are not always repeated.

System: 598228-144-R-J1-PDC complex spheroids, viability
Test: Anticancer human tumor 598228-144-R-J1-PDC patient-derived serous endometrial adenocarcinoma cell line growth inhibition [CLK]
Settings: for viability, T/C: stronger effect = lower value
Method in brief: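 Patient-derived tumor cells grown as complex spheroids with HUVEC endothelial cells and mesenchymal stem cells, treated with drug combinations. Concentrations descend in half-log steps from near clinical Cmax, or from 10 microM if Cmax unknown.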

[1] = curve of first compound, second compound 0.0316 µM
[2] = curve of first compound, second compound 0.1 µM
[3] = curve of first compound, second compound 0.316 µM
[4] = curve of first compound, second compound 1 µM
[5] = curve of first compound, second compound 3.16 µM
[6] = curve of first compound, second compound 10 µM
[7] = second compound 0.0316 µM, first compound 0.0316 µM
[8] = second compound 0.0316 µM, first compound 0.1 µM
[9] = second compound 0.0316 µM, first compound 0.316 µM
[10] = second compound 0.0316 µM, first compound 1 µM
[11] = second compound 0.0316 µM, first compound 3.16 µM
[12] = second compound 0.0316 µM, first compound 10 µM
[13] = second compound 0.1 µM, first compound 0.0316 µM
[14] = second compound 0.1 µM, first compound 0.1 µM
[15] = second compound 0.1 µM, first compound 0.316 µM
[16] = second compound 0.1 µM, first compound 1 µM
[17] = second compound 0.1 µM, first compound 3.16 µM
[18] = second compound 0.1 µM, first compound 10 µM
[19] = second compound 0.316 µM, first compound 0.0316 µM
[20] = second compound 0.316 µM, first compound 0.1 µM
[21] = second compound 0.316 µM, first compound 0.316 µM
[22] = second compound 0.316 µM, first compound 1 µM
[23] = second compound 0.316 µM, first compound 3.16 µM
[24] = second compound 0.316 µM, first compound 10 µM
[25] = second compound 1 µM, first compound 0.0316 µM
[26] = second compound 1 µM, first compound 0.1 µM
[27] = second compound 1 µM, first compound 0.316 µM
[28] = second compound 1 µM, first compound 1 µM
[29] = second compound 1 µM, first compound 3.16 µM
[30] = second compound 1 µM, first compound 10 µM
[31] = second compound 3.16 µM, first compound 0.0316 µM
[32] = second compound 3.16 µM, first compound 0.1 µM
[33] = second compound 3.16 µM, first compound 0.316 µM
[34] = second compound 3.16 µM, first compound 1 µM
[35] = second compound 3.16 µM, first compound 3.16 µM
[36] = second compound 3.16 µM, first compound 10 µM
[37] = second compound 10 µM, first compound 0.0316 µM
[38] = second compound 10 µM, first compound 0.1 µM
[39] = second compound 10 µM, first compound 0.316 µM
[40] = second compound 10 µM, first compound 1 µM
[41] = second compound 10 µM, first compound 3.16 µM
[42] = second compound 10 µM, first compound 10 µM
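Note: spheroids exposed to compounds for seven days before readout.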
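Throughout, for viability, T/C: 100% = DMSO vehicle control wells.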

NC(=O)C(=Cn1cnc(-c2cc(C(F)(F)F)cc(C(F)(F)F)c2)n1)c1cncnc1 + CNC(=O)c1ccc(Nc2nc(OC3CCCC3)c3c(-c4ccc5nc(C)oc5c4)c[nH]c3n2)c(OC)c1
pIC50 [1]: 6.44 | pIC50 [2]: 6.28 | pIC50 [3]: 6.19 | pIC50 [4]: 6.33 | pIC50 [5]: 6.52 | pIC50 [6]: 6.80 | viability, T/C (second compound 0.0316 µM, first compound 0.00949 µM): 110% | viability, T/C (second compound 0.0316 µM, first compound 0.03 µM): 97.5% | viability, T/C (second compound 0.0316 µM, first compound 0.0949 µM): 93.9% | viability, T/C (second compound 0.0316 µM, first compound 0.3 µM): 53.3% | viability, T/C (second compound 0.0316 µM, first compound 0.949 µM): 30.1% | viability, T/C (second compound 0.0316 µM, first compound 3 µM): 25.7% | viability, T/C (second compound 0.1 µM, first compound 0.00949 µM): 101% | viability, T/C (second compound 0.1 µM, first compound 0.03 µM): 99.8% | viability, T/C (second compound 0.1 µM, first compound 0.0949 µM): 97.9% | viability, T/C (second compound 0.1 µM, first compound 0.3 µM): 63.8% | viability, T/C (second compound 0.1 µM, first compound 0.949 µM): 36.4% | viability, T/C (second compound 0.1 µM, first compound 3 µM): 28.7% | viability, T/C (second compound 0.316 µM, first compound 0.00949 µM): 88.1% | viability, T/C (second compound 0.316 µM, first compound 0.03 µM): 95.9% | viability, T/C (second compound 0.316 µM, first compound 0.0949 µM): 82.3% | viability, T/C (second compound 0.316 µM, first compound 0.3 µM): 64% | viability, T/C (second compound 0.316 µM, first compound 0.949 µM): 43.5% | viability, T/C (second compound 0.316 µM, first compound 3 µM): 18.2% | viability, T/C (second compound 1 µM, first compound 0.00949 µM): 97.5% | viability, T/C (second compound 1 µM, first compound 0.03 µM): 97.3% | viability, T/C (second compound 1 µM, first compound 0.0949 µM): 85% | viability, T/C (second compound 1 µM, first compound 0.3 µM): 55.4% | viability, T/C (second compound 1 µM, first compound 0.949 µM): 37.1% | viability, T/C (second compound 1 µM, first compound 3 µM): 10.4% | viability, T/C (second compound 3.16 µM, first compound 0.00949 µM): 96.8% | viability, T/C (second compound 3.16 µM, first compound 0.03 µM): 73.6% | viability, T/C (second compound 3.16 µM, first compound 0.0949 µM): 68.2% | viability, T/C (second compound 3.16 µM, first compound 0.3 µM): 54.3% | viability, T/C (second compound 3.16 µM, first compound 0.949 µM): 30% | viability, T/C (second compound 3.16 µM, first compound 3 µM): 10.9% | viability, T/C (second compound 10 µM, first compound 0.00949 µM): 88.1% | viability, T/C (second compound 10 µM, first compound 0.03 µM): 72.3% | viability, T/C (second compound 10 µM, first compound 0.0949 µM): 58.7% | viability, T/C (second compound 10 µM, first compound 0.3 µM): 42% | viability, T/C (second compound 10 µM, first compound 0.949 µM): 19.6% | viability, T/C (second compound 10 µM, first compound 3 µM): 4.93%

O=c1[nH]cc(F)c(=O)[nH]1 + CNC(=O)c1ccc(Nc2nc(OC3CCCC3)c3c(-c4ccc5nc(C)oc5c4)c[nH]c3n2)c(OC)c1
pIC50 [1]: < 5.00 | pIC50 [2]: < 5.00 | pIC50 [3]: < 5.00 | pIC50 [4]: < 5.00 | pIC50 [5]: < 5.00 | pIC50 [6]: < 5.00 | viability, T/C [7]: 99.7% | viability, T/C [8]: 113% | viability, T/C [9]: 107% | viability, T/C [10]: 103% | viability, T/C [11]: 99.9% | viability, T/C [12]: 86.5% | viability, T/C [13]: 116% | viability, T/C [14]: 111% | viability, T/C [15]: 128% | viability, T/C [16]: 115% | viability, T/C [17]: 101% | viability, T/C [18]: 76.6% | viability, T/C [19]: 108% | viability, T/C [20]: 106% | viability, T/C [21]: 110% | viability, T/C [22]: 112% | viability, T/C [23]: 96.2% | viability, T/C [24]: 90% | viability, T/C [25]: 102% | viability, T/C [26]: 99.7% | viability, T/C [27]: 94.5% | viability, T/C [28]: 101% | viability, T/C [29]: 93.4% | viability, T/C [30]: 83.6% | viability, T/C [31]: 95% | viability, T/C [32]: 97% | viability, T/C [33]: 97.1% | viability, T/C [34]: 83.1% | viability, T/C [35]: 94.5% | viability, T/C [36]: 77.3% | viability, T/C [37]: 87.8% | viability, T/C [38]: 86.6% | viability, T/C [39]: 89.8% | viability, T/C [40]: 88.5% | viability, T/C [41]: 77.8% | viability, T/C [42]: 65.2%

CC(Nc1ccc2c(c1)OCCn1cc(N3C(=O)OCC3C(F)F)nc1-2)C(N)=O (stereo not drawn)
viability, T/C (compound 0.0316 µM): 82.3% and 77.2% | viability, T/C (compound 0.1 µM): 67.8% and 63.2% | viability, T/C (compound 0.316 µM): 48% and 46.3% | viability, T/C (compound 1 µM): 46.3% and 36.9% | viability, T/C (compound 3.16 µM): 33.6% and 29.7% | viability, T/C (compound 10 µM): 28.9% and 24% | pIC50 (curve of compound): 6.38 and 6.58

C=CC(=O)N1CCN(c2nc(=O)n(-c3c(C)ccnc3C(C)C)c3nc(-c4c(O)cccc4F)c(F)cc23)C(C)C1 (stereo not drawn) + CN1CCN(c2cc(C(=O)Nc3cc4cc(-c5cnn(C)c5)ccc4cn3)ccn2)CC1
pIC50 [1]: < 5.00 | pIC50 [2]: < 5.00 | pIC50 [3]: > 7.50 | pIC50 [4]: > 7.50 | pIC50 [5]: > 7.50 | pIC50 [6]: > 7.50 | viability, T/C [7]: 128% | viability, T/C [8]: 130% | viability, T/C [9]: 121% | viability, T/C [10]: 138% | viability, T/C [11]: 159% | viability, T/C [12]: 128% | viability, T/C [13]: 128% | viability, T/C [14]: 122% | viability, T/C [15]: 132% | viability, T/C [16]: 160% | viability, T/C [17]: 162% | viability, T/C [18]: 121% | viability, T/C [19]: 20.6% | viability, T/C [20]: 21.9% | viability, T/C [21]: 20.1% | viability, T/C [22]: 24.2% | viability, T/C [23]: 25.9% | viability, T/C [24]: 18.4% | viability, T/C [25]: 1.67% | viability, T/C [26]: 1.68% | viability, T/C [27]: 2.05% | viability, T/C [28]: 2.47% | viability, T/C [29]: 2.38% | viability, T/C [30]: 1.47% | viability, T/C [31]: 1.63% | viability, T/C [32]: 3.15% | viability, T/C [33]: 2.36% | viability, T/C [34]: 2.16% | viability, T/C [35]: 3.18% | viability, T/C [36]: 4.16% | viability, T/C [37]: 0.96% | viability, T/C [38]: 1.09% | viability, T/C [39]: 2.11% | viability, T/C [40]: 1.48% | viability, T/C [41]: 4.19% | viability, T/C [42]: 1.94%
